In PubChem BioAssay (NCI):
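Results reflect a 48-hour exposure of cells in 96-well plates to compound at five concentrations. TGI is the concentration that stops growth completely.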

Legend:
Assay in all cases: NCI-60 cell line screen, 48 h
[1] = tested on: SF-295 CNS
[2] = tested on: 786-0 renal
[3] = tested on: RPMI-8226 leukemia
[4] = tested on: SK-OV-3 ovarian
[5] = tested on: MALME-3M melanoma
[6] = tested on: NCI-H522 lung
[7] = tested on: HOP-62 NSCLC
[8] = tested on: UACC-62 melanoma
[9] = tested on: SN12C renal
[10] = tested on: MDA-N
[11] = tested on: SF-268 CNS

| Compound | TGI [1] | TGI [2] | TGI [3] | TGI [4] | TGI [5] | TGI [6] | TGI [7] | TGI [8] | TGI [9] | TGI [10] | TGI [11] |
| --- | --- | --- | --- | --- | --- | --- | --- | --- | --- | --- | --- |
| Nn1c(-c2ccccc2)n[nH]c1=O | > 100 µM | > 100 µM | > 100 µM | > 100 µM | > 100 µM | > 100 µM | > 100 µM | > 100 µM | > 100 µM | > 100 µM | > 100 µM |
| O=C(N/N=C/c1ccc(Cl)cc1)c1c(Cl)c(Cl)c(Cl)c(Cl)c1-c1nc2ccccc2[nH]1 | > 100 µM | > 100 µM | > 100 µM | > 100 µM | > 100 µM | > 100 µM | > 100 µM | > 100 µM | > 100 µM | > 100 µM | > 100 µM |
| COP(=O)(OC)C1=c2c(C)noc2=C2C=COC2C1=O (stereo not given) | > 100 µM | > 100 µM | > 100 µM | > 100 µM | > 100 µM | > 100 µM | > 100 µM | > 100 µM | > 100 µM | > 100 µM | > 100 µM |
| O=C(NCc1ccccc1)c1n[nH][nH]c1=O | > 100 µM | > 100 µM | > 100 µM | > 100 µM | > 100 µM | > 100 µM | > 100 µM | > 100 µM | > 100 µM | > 100 µM | > 100 µM |
| COC(=O)c1c(C)nc2c1cc(O)c1[nH]c(C)c(C)nc12 | > 100 µM | > 100 µM | > 100 µM | > 100 µM | > 100 µM | > 100 µM | 71.7 µM | > 100 µM | > 100 µM | > 100 µM | > 100 µM |
| CCOC(=O)Nc1sc2c(c1C#N)CCCC2 | > 100 µM | > 100 µM | > 100 µM | > 100 µM | > 100 µM | > 100 µM | > 100 µM | > 100 µM | > 100 µM | > 100 µM | > 100 µM |
| O=[N+]([O-])c1cc(C=NC23CC4CC(CC(C4)C2)C3)ccc1Cl | 96.9 µM | 41.2 µM | 16.8 µM | > 100 µM | 42.5 µM | 32.7 µM | 17.7 µM | 20.9 µM | 35.2 µM | 32.3 µM | > 85.9 µM |
| Cc1ccnc(NS(=O)(=O)c2ccc(N=[N+]=[N-])cc2)n1 | > 100 µM | > 100 µM | > 100 µM | > 100 µM | > 100 µM | > 100 µM | > 100 µM | > 100 µM | > 100 µM | > 100 µM | > 100 µM |
| NC1(c2cc3ccccc3s2)CCCC1 | > 100 µM | > 100 µM | 34.4 µM | > 100 µM | > 100 µM | > 100 µM | > 100 µM | > 100 µM | > 100 µM | > 100 µM | > 100 µM |
| Cc1ccc(N(Cc2ccccc2)Cc2ccccc2)cc1 | > 100 µM | > 100 µM | 43.6 µM | > 100 µM | 61 µM | 86.8 µM | > 100 µM | > 100 µM | > 100 µM | > 100 µM | > 100 µM |
| NC(N)=Nc1ccc(CC(N)NCC(=O)O)cc1 (stereo not given) | > 25 µM | > 25 µM | > 25 µM | > 25 µM | > 25 µM | > 25 µM | > 25 µM | > 25 µM | > 25 µM | > 25 µM | > 25 µM |
| C[C@]12CC[C@H](O)CC1=CC[C@@H]1[C@@H]2CC[C@]2(C)C(=N/N)/C(=N\O)C[C@@H]12 | > 100 µM | > 100 µM | > 100 µM | > 100 µM | > 100 µM | > 100 µM | > 100 µM | > 100 µM | > 100 µM | 48.2 µM | > 100 µM |
| N#CC(NCc1cccc(CNC(C#N)c2ccccc2)c1)c1ccccc1 (stereo not given) | > 100 µM | > 100 µM | 65.4 µM | > 100 µM | 65.9 µM | > 100 µM | > 100 µM | > 100 µM | > 100 µM | > 100 µM | > 100 µM |
| CC(=O)N(C(=O)CC(=O)N1N=C(c2ccccc2)C(N=Nc2ccccc2[N+](=O)[O-])C1=O)c1ccc(Cl)cc1 (stereo not given) | > 10 µM | > 10 µM | > 10 µM | > 10 µM | > 10 µM | > 10 µM | > 10 µM | > 10 µM | > 10 µM | > 10 µM | > 10 µM |
| CCOC(=O)c1c(CN2CCCC2)n(-c2ccccc2)c2cc(Br)c(O)cc12 | 32 µM | 31 µM | 39.5 µM | 66.5 µM | 35.5 µM | 36.3 µM | 26.7 µM | 31.1 µM | 30.2 µM | 32.2 µM | 49.7 µM |
